Measured values: US20140364454A1, “METAL-CHELATING COMPOUNDS HAVING AT LEAST ONE POLYAMINO CHAIN” (UNIVERSITE DE RENNES I, priority 2011, published 2014)
Read-outs that look alike come from different tables or passages of the source.

Assays:
HepG2 cells = assay: Anti-proliferative effect on HepG2 cells (nuclei count or SDH activity); type: cell-based, human; conditions: 72 h; for IC50: HepG2, absence of exogenous iron, read-out: IC50 associated with the cytostatic effect; for % of HepG2 cells concerned by the anti-proliferative effect: absence of exogenous iron
Description: The majority of the Quilamines, like ICL670, show biphase dose-effect curves in the absence of exogenous iron, with an anti-proliferative constituent for concentration values of 1 to 10 micromoles per liter and a cytotoxic constituent associated with a release of LDH for concentration values of over 10 micromoles per liter. The percentage of HepG2 cells concerned by the anti-proliferative effect and the values of IC50 associated with this cytostatic effect in the absence of exogenous iron were listed in the table 4 below.
The implication of PTS in the cytostatic and cytotoxic action of Quilamines was analyzed in proliferating HepG2 hepatocyte tumor cells after activation of PTS or competitive inhibition of PTS by spermidine, a polyamine naturally present in the organism and most efficaciously captured by the PTS. The conditions of treatment by Quilamines are identical to those described in paragraph III-1.
Inhibiting ornithine decarboxylase (ODC), the key enzyme in the biosynthesis of polyamines, causes a depletion of intra-cell polyamines and an activation of PTS which enables the deficiency to be met. This activation of PTS is done by means of the ODC inhibitor, alpha-difluoromethyl ornithine (DFMO).
The competitive inhibition of PTS by spermidine is prompted by the co-treatment of the cells by the Quilamines in the presence of spermidine, in a concentration of 50 micromoles per liter.

Caco-2 cells [1] = assay: Cell viability of proliferating Caco-2 cells (number of nuclei); type: cell-based, human; conditions: for IC50: no exogenous iron; for Constituent 1 (1-10 μM) % cell / Constituent 2 (10-100 μM) % cell: Caco-2 J4, no exogenous iron
Experimental: (§1) The action of Quilamines on the cell viability was analyzed on enterocyte cells of the Caco-2 tumor cell line derived from human colon carcinoma and compared with the action of ICL670 in the presence or absence of exogenous iron, after activation (DFMO) or competitive inhibition by spermidine, of the PTS. The operating conditions used are identical to those used for CHO/CHO-MG and HepG2 cells.
The results for the measurement of the anti-proliferative effect of Quilamines, and of ICL670 on the proliferating cells (cytostatic constituent) when there is no exogenous iron have been listed in the table 4 below.

Caco-2 cells [2] = assay: LDH release of Caco-2 cells; type: cell-based, human; conditions: for % LDH/control 10 μM: Caco-2 J4, 10 μM; for % LDH/control 100 μM: Caco-2 J4, 100 μM
Experimental: as §1
As in the case of the other cell lines in proliferative phase presented here above, the dose-effect curves of the action of the Quilamines on the number of viable cells (number of nuclei) are biphase curves with a cytostatic constituent for concentration values of below 30 micromoles per liter and a cytotoxic constituent with release of LDH for concentration values above 30 micromoles per liter. Only this second cytotoxic constituent is observed when the cells of the Caco-2 cell line are treated after confluence (stopping of the proliferation).

[3] = test system: mutant cell line CHO-MG without PTS; assay: Anti-proliferative effect on CHO-MG cells without PTS, counting of cell nuclei; type: cell-based, hamster; conditions: for IC50: 72 h treatment; for Ratio IC50 (CHO-MG/CHO): selectivity of recognition by the PTS
Description: The IC50 inhibitor concentration corresponding to the concentration in Quilamines enables the inhibition at 50% of the cell proliferation was deduced from the dose-effect curves of numeration of the nuclei of the living cells on the CHO and CHO-MG cell lines. These dose-effect curves are sometimes bi-phase curves as in the case of Quilamine HQ1-44 which has an anti-proliferative constituent (without concomitant release of LDH in supernatant) in the range of concentrations of 0.4 to 3 micromoles per liter and a second cytotoxic constituent accompanied by membrane toxicity expressed by the release of LDH for concentrations of over […]. The lower the value of IC50, the greater the efficiency of the anti-proliferative effect of the tested chelators.
Furthermore, the ratio of the IC50 inhibitor concentrations found for the CHO-MG and the CHO cell lines (Ratio IC50 (CHO-MG/CHO)) was computed for several Quilamines according to the invention. This ratio makes it possible to estimate the selectivity of recognition of the different chelators by the PTS: the higher the ratio, the more clearly is the chelator recognized by the PTS. When this ratio is close to 1, the tested chelator is not recognized or is little recognized by the PTS.

[4] = test system: wild cell line (CHO) of hamster ovarian cells; assay: Anti-proliferative effect on CHO cells, counting of cell nuclei (Hoechst 33342); type: cell-based; conditions: 72 h treatment, no exogenous iron; read-out: IC50 CHO
Experimental: The in vitro efficacy of different Quilamines was tested on a wild cell line (CHO) of hamster ovarian cells having PTS and a mutant cell line CHO-MG without PTS. The two cell types CHO and CHO-MG were treated, 24 hours after being seeded in 96-well microplates, by concentrations of different Quilamines ranging from 0.1 to 400 micromoles per liter. The cytostatic (anti-proliferative) effects and cytotoxic effects of Quilamine after 72 hours' treatment of the cells were assessed respectively by counting cell nuclei after DNA marking by the Hoechst 33342 fluorescent intercalant dye and by analysis of membrane damage detected by the dosing of the lactate dehydrogenase activity (LHD) in the supernatants.
The IC50 inhibitor concentration corresponding to the concentration in Quilamines enables the inhibition at 50% of the cell proliferation was deduced from the dose-effect curves of numeration of the nuclei of the living cells on the CHO and CHO-MG cell lines. […] The lower the value of IC50, the greater the efficiency of the anti-proliferative effect of the tested chelators.
A comparison was made of the cytostatic or anti-proliferative action and the cytotoxic action for 72 h of treatment by Quilamine HQ1-44 and 8-hydroxyquinoline and ICL670, on the CHO cell lines in the presence and without the presence of exogenous iron, in the form of Fe(III) citrate in a concentration of 20 micromoles per liter. The results obtained are shown in FIG. 4, FIG. 4A relating to the results on cell viability and FIG. 4B relating to the results on cell toxicity.

[5] = Calcein test: shift of iron(III) complexated with calcein; type: physicochemical; conditions: pH 7.4
Experimental: The Quilamines HQ1-34, HQ1-344, HQ1-343, HQ1-33, HQ1-333, HQ1-44, HQ1-43, HQ1-444, HQ1-443 according to the invention were synthesized and tested. For each Quilamine, its capacity to shift iron (III) complexated with calcein was tested. Calcein is a fluorescent molecule which has a pFe3+ value of 20.3 with pH 7.4 close to the value measured for ligands of low molecular weight present in human or animal cells and complexating the labile iron pool, such as citrate which has a pFe^3+ value of 19.3 with pH of 7.4 (LIP). The fluorescence of calcein is detected on a microplate, in a concentration of 0.1 micromole per liter, in solution in a HEPES buffer (4-(2-hydroxyethyl)-1-piperazine ethane sulfonic acid) with pH 7.4, in a Fusion (Packard) type a microplate fluorescence reader, under excitation at 450 nanometers and analysis of the fluorescence emission at 515 nanometers. The fluorescence of calcein is extinguished in the presence of iron(III) in the form of hydrochloride (chloride) with a concentration of 1 micromole per liter. The addition of Quilamine in different concentrations ranging from 0.01 to 40 micromoles per liter prompts the shifting of iron(III) complexated with calcein towards Quilamine, resulting in a restoration of the fluorescence of the calcein. The dose-effect curves expressing the percentage of restoration of fluorescence of calcein (relative to the fluorescence of the free molecule in the absence of iron), for each Quilamine concentration, makes it possible to deduce the Quilamine concentration prompting the 50% shift of Fe(III) from calcein and the restoration of its associated fluorescence (CE50). These concentration values CE50 are inversely proportional to the chelating capacity of the chelators and the aptitude to mobilize iron from the LIP of the organism.
Comparatively, measurements were made, under the same conditions, of the efficacy in shifting iron(III) complexated with calcein of the two prior-art chelators, 8-hydroxyquinoline and O-trensox, the latter being currently considered to be the chelator having the greatest affinity for iron.

[6] = Potentiometry: stability constants and pFe3+ of the iron complex; type: physicochemical; conditions: pH 7.4
Experimental: The complexation affinity of Quilamine with the metal ion in the organism reflects the chelating capacity or chelating power of Quilamine. This affinity can be assessed by measuring the value of pW corresponding to −log of the concentration in free metal ion W, i.e. non-complexated by the Quilamine for a ratio of respective concentrations of Quilamine (10 micromoles per liter) and metal ion (1 micromole per liter) equal to 10, at 25° C. and pH 7.4. The higher the value of pW, the greater the affinity of Quilamine with metal ion. The affinity of Quilamine with iron in its ferric form (Fe(III)) and its ferrous form (Fe(II)) is measured respectively by pFe^3+ and pFe^2+ at physiological pH (pH=7.4), at 25° C.
Potentiometry measurements were made in thermostated titration cells at 25±0.1° C., using a Metrohm 702 SM Titrino titrator connected to a Metrohm 6.0233.100. The ligand solution is prepared in a concentration of ˜1.5×10^−3 moles per liter, the solution of Fe^3+ is made from FeCl3 and titrated by complexation with a standard solution of EDTA (ethylenediaminetetracetic acid). The sample for the measurement contained approximately 0.03 millimoles per liter of ligand in a volume of 30 ml where the ionic strength is maintained at 0.1 mole per liter in using KNO3 as a support electrolyte. During the titrations, Fe^3+ is added to 0.45 or 0.9 equivalents of ligand. Each titration consists of 150-200 equilibrium points with pH varying from 2.0 to 11.5, and is repeated at least twice. The thermodynamic constants are computed with the software […] and the speciation diagram of the species is done by the Hyss program.

[7] = Caco-2 J4, cytostatic constituent, read-out: Constituent 1 (1-10 μM) IC50
[8] = Caco-2 J4, cytotoxic constituent, read-out: Constituent 2 (10-100 μM) IC50

SMILES | IC50 (HepG2 cells) [µM] | % of HepG2 cells concerned by the anti-proliferative effect (HepG2 cells) [%] | IC50 (Caco-2 cells [1]; [7]) [µM] | IC50 (Caco-2 cells [1]; [8]) [µM] | Constituent 1 (1-10 μM) % cell (Caco-2 cells [1]) [%] | Constituent 2 (10-100 μM) % cell (Caco-2 cells [1]) [%] | % LDH/control 10 μM (Caco-2 cells [2]) [%] | % LDH/control 100 μM (Caco-2 cells [2]) [%] | IC50 [3] [µM] | Ratio IC50 (CHO-MG/CHO) [3] | IC50 [4] [µM] | chelating capacity of HQ1-3 type compared with HQ1-4 type Quilamines [5] | IC50 (HepG2 cells; Homo sapiens) [µM] | IC50 (Caco-2 cells [1]; Homo sapiens, Caco-2 J4, cytostatic constituent, read-out: Constituent 1 (1-10 μM) IC50) [µM] | IC50 (Caco-2 cells [1]; Homo sapiens, Caco-2 J4, cytotoxic constituent, read-out: Constituent 2 (10-100 μM) IC50) [µM] | pFe3+ [6]
NCCCNCCCCNCc1ccc2cccc(O)c2n1 [HQ1-43] | 1.75 | 10 | 1 | 30 | 7 | 93 | 93 | 240 |  |  |  |  |  |  |  | 
NCCCCNCCCCNCCCCNCc1ccc2cccc(O)c2n1 [HQ1-444] | 4.75 | 10 | 2 | 75 | 60 | 40 | 99 | 118 | 240 | 38 | 6.3 |  |  |  |  | 
NCCCCNCCCNCc1ccc2cccc(O)c2n1 [HQ1-34] | 1.75 | 5 | 1 | 45 | 20 | 80 | 100 | 229 |  |  |  | better chelating capacity |  |  |  | 
NCCCCNCCCCNCCCNCc1ccc2cccc(O)c2n1 [HQ1-344] |  | 10 |  |  | 22 | 78 | 95 | 120 |  |  |  | better chelating capacity | 1.75 | 3 | 75 | 
NCCCNCCCCNCCCCNCc1ccc2cccc(O)c2n1 [HQ1-443] | 2.25 | 17.5 | 1 | 35 | 5 | 95 | 88 | 189 | 258 | 13 | 20.2 |  |  |  |  | 
NCCCNCCCCNCCCNCc1ccc2cccc(O)c2n1 [HQ1-343] | 2.15 | 12.5 | 2 | 40 | 30 | 70 | 89 | 255 |  |  |  | better chelating capacity |  |  |  | 
O=C(NCCN(CCNC(=O)c1cc(S(=O)(=O)O)c2cccnc2c1O)CCNC(=O)c1cc(S(=O)(=O)O)c2cccnc2c1O)c1cc(S(=O)(=O)O)c2cccnc2c1O [o-Trensox, reference compound] |  |  |  |  |  |  |  |  |  |  |  |  |  |  |  | 29.5
